These results are taken from ChEMBL document CHEMBL1649412, “Discovery and SAR of 5-(3-chlorophenylamino)benzo[c][2,6]naphthyridine-8-carboxylic acid (CX-4945), the first clinical stage inhibitor of protein kinase CK2 for the treatment of cancer” (J Med Chem, 2011).

The structures appear in SMILES notation. Some results are limits rather than exact numbers.

Test [1] deals with Casein kinase II (Homo sapiens, UniProt P19784+P67870+P68400). In words: Inhibition of human recombinant CK2 assessed as inhibition of [gamma33P]ATP incorporation into substrate by […]. The test is classed as protein-complex assay.
Casein kinase II, sequence (P67870 whole entry): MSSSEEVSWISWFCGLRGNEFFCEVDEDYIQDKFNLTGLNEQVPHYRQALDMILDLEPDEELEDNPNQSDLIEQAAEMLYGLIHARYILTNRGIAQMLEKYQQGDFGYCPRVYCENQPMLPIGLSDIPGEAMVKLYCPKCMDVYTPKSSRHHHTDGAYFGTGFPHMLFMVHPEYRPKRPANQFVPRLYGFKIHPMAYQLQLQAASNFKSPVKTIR
Casein kinase II, sequence (P68400 whole entry): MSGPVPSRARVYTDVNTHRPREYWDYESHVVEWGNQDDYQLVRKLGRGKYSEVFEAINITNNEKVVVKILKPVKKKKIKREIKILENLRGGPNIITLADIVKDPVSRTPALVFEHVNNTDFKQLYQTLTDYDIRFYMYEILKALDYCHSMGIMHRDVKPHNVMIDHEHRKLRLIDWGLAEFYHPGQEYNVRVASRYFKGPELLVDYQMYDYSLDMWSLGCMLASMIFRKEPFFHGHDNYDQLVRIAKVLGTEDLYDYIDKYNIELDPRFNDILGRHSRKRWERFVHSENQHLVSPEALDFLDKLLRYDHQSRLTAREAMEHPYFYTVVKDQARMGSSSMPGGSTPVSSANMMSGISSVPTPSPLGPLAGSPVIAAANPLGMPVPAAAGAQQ
Casein kinase II, sequence (P19784 whole entry): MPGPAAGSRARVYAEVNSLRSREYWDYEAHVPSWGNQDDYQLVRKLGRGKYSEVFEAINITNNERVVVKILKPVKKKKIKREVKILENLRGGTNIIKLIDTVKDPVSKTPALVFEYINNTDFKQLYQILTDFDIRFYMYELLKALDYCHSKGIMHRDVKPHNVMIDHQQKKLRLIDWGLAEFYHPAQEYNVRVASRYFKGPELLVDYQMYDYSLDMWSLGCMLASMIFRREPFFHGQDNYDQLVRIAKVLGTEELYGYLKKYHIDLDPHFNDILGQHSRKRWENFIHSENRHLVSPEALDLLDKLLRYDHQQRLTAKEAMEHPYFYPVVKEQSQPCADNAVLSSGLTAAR
For test [2], the system named is HCT-116. In words: cells. The following applies: Homo sapiens, HCT-116, 96 h.
Description: Antiproliferative activity against human HCT116 cells after 4 days by alamar blue assay
The nature of test [3]: Antiproliferative activity against human H1299 cells after 4 days by alamar blue assay. It counts as functional, cell-based. The following applies: NCI-H1299, 96 h.
Test [4] relates to A549. In words: Antiproliferative activity against human A549 cells after 4 days by alamar blue assay. It counts as functional, cell-based. Particulars: A549, 96 h. Background: The colour change of resazurin is a common sign of viable cells or microbes.
Test [5] deals with PC-3. In words: cells. The following applies: Homo sapiens, PC-3, 96 h.
Description: Antiproliferative activity against human PC3 cells after 4 days by alamar blue assay
The test system of test [6] is Jurkat. In words: cells. Particulars: Homo sapiens, 96 h.
Description: Antiproliferative activity against human Jurkat cells after 4 days by alamar blue assay
Test [7] deals with K562. In words: Antiproliferative activity against human K562 cells after 4 days by alamar blue assay. The test is classed as functional, cell-based. Particulars: K562, 96 h.
Test [8] concerns MIA PaCa-2. In words: cells. Particulars: Homo sapiens, MIA PaCa-2, 96 h.
Description: Antiproliferative activity against human MIAPaCa2 cells after 4 days by alamar blue assay
A short description of test [9]: cells. Particulars: Homo sapiens, Hs-578T, 96 h.
Description: Antiproliferative activity against human Hs 578T cells after 4 days by alamar blue assay
Test [10] concerns the target Poly [ADP-ribose] polymerase 1 (Homo sapiens, UniProt P09874). Particulars: 1 uM.
Description: Inhibition of PARP1 at 1 uM by chemiluminescence assay
Test [11] concerns LNCaP. In words: Antiproliferative activity against human LNCAP cells after 4 days by alamar blue assay. The following applies: 96 h. The test is classed as functional, cell-based.
For test [12], the system named is MCF7. In words: Antiproliferative activity against human MCF7 cells after 4 days by alamar blue assay. The test is classed as functional, cell-based. Particulars: MCF7, 96 h.

Poly [ADP-ribose] polymerase 1, sequence (P09874 whole entry): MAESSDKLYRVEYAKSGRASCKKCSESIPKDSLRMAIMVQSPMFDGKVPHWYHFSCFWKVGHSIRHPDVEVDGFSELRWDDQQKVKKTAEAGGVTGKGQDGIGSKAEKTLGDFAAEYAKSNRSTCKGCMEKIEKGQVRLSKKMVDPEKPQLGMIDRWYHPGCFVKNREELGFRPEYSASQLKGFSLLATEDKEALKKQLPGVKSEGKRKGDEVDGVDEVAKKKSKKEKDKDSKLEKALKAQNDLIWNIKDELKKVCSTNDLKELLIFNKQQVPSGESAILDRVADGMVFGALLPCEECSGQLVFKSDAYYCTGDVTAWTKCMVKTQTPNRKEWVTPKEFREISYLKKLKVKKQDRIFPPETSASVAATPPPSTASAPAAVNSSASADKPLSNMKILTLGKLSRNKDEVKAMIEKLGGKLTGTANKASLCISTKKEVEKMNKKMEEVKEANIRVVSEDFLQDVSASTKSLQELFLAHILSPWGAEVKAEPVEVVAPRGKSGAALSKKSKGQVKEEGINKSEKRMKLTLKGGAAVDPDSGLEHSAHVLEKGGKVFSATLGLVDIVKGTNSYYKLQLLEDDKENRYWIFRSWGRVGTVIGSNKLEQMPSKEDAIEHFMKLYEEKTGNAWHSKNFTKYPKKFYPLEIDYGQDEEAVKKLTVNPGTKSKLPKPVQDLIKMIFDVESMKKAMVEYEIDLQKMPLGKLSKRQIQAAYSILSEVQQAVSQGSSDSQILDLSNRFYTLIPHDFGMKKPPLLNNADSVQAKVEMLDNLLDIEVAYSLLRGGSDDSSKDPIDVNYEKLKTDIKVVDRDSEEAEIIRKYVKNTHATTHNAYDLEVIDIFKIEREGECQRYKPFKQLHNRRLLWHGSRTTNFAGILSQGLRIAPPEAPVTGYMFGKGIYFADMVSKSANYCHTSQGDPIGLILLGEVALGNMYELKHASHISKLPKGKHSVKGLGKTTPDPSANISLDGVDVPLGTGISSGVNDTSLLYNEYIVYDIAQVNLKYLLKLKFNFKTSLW

Usually IC50 stands for the concentration needed to halve the response being measured. On to `O=C(O)c1ccc2c(c1)nc(NC1CCCC1)c1ccncc12`, for which the IC50 in test [1] amounted to 0.027 µM.
On the same count and under the same terms, the value for `O=C(O)c1ccc2c(c1)nc(Nc1ccc(Oc3ccccc3)cc1)c1ccncc12` was 0.069 µM; that for `Cc1cc2c(cc1C(=O)O)nc(Nc1cccc(Cl)c1)c1ccncc12` was greater than 0.5 µM; that for `O=C(O)c1ccc2c(c1)nc(Nc1ccccc1)c1cccnc12` was greater than 0.5 µM.
`O=C(O)c1ccc2c(c1)nc(Nc1cccc(F)c1)c1ccncc12`: the IC50 in test [2] is 7.6 µM; in test [3] it was 8.3 µM; in test [4], 16.7 µM; in test [5], 9.2 µM; in [6] it was 3.2 µM; in [7], greater than 10 µM. Moreover, the IC50 in [8] came to 6 µM; in test [9] it was 5.9 µM.
Take `COc1cccc(Nc2nc3cc(C(=O)O)ccc3c3cnccc23)c1`: the IC50 was 9.5 µM in [2]; 10.7 µM in test [3]; 17.4 µM in test [5]; 6.5 µM in test [6]; 5.9 µM in test [7]; 8.5 µM in test [8]. Further, the midpoint of inhibition in [9], the IC50, lay at 12.9 µM.
As to `O=C(O)c1ccc2c(c1)nc(Nc1ccccc1)c1cnccc12`, the IC50 in test [1] is greater than 0.5 µM.
As for `CC(C)OCCNc1nc2cc(C(=O)O)ccc2c2cnccc12`, in test [1], the half-maximal inhibitory concentration (IC50) came to 0.011 µM.
As a reminder, the inhibition is the change of the read-out against control, counted positive when it falls. A higher inhibition goes with a strong effect. The compound `O=C(O)c1ccc2c(c1)nc(OCCCO)c1ccsc12` had an inhibition in test [10] of 7%.
On to `O=C(O)c1ccc2c(c1)nc(Nc1ccccc1Cl)c1ccncc12`, for which, in [1], the IC50 was determined as 0.008 µM.
Consider `CONc1nc2cc(C(=O)O)ccc2c2cnccc12`, for which, in test [1], the IC50 was 0.008 µM.
For `Cc1c(C(=O)O)ccc2c1nc(Nc1cccc(Cl)c1)c1ccncc12`, in [1], the IC50 amounted to 0.006 µM.
In turn, `O=C(O)c1ccc2c(c1)nc(NCCCO)c1ccsc12` had an inhibition in test [10] of 12%.
Take `NS(=O)(=O)c1cccc(Nc2nc3cc(C(=O)O)ccc3c3cnccc23)c1`: the IC50 in [1] was determined as 0.043 µM.
The same measure, in the same setting: the value for `O=C(O)c1ccc2c(c1)nc(Nc1cccc(Cl)c1)c1nccnc12` was 0.22 µM; that for `NC(=O)c1ccc2c(c1)nc(Nc1cccc(Cl)c1)c1ccncc12` was 0.417 µM.
As for `O=C(O)c1ccc2c(c1)nc(Nc1ccccc1)c1ncccc12`, the IC50 in test [1] was greater than 0.5 µM.
Consider `O=C(O)c1ccc2c(c1)nc(Nc1cccc(Cl)c1)c1ncccc12`, for which the IC50 in test [1] was greater than 0.5 µM.
On the same count and under the same terms, the result for `O=C(O)c1ccc2c(c1)nc(Nc1cccc(Cl)c1)c1cccnc12` reads greater than 0.5 µM; that for `Clc1cccc(Nc2nc3cc(-c4nnc[nH]4)ccc3c3cnccc23)c1`, greater than 0.5 µM; that for `Clc1cccc(Nc2nc3ccccc3c3cnccc23)c1`, greater than 0.5 µM.
As for `O=C(O)c1cc2sccc2c(Nc2cccc(Cl)c2)n1`, the IC50 in test [1] worked out at 0.032 µM.
Regarding `O=C(O)c1cccc2c1nc(Nc1cccc(Cl)c1)c1ccncc12`, the IC50 in test [1] was greater than 0.5 µM.
Consider `O=C(O)c1ccc2c(c1)nc(Nc1cccc(Oc3ccccc3)c1)c1ccncc12`, for which, in test [1], the IC50 was 0.019 µM.
With `O=C(O)c1ccc2nc(Nc3cccc(Cl)c3)c3ccncc3c2c1`, the IC50 in test [1] was determined as 0.35 µM.
For the compound `O=C(O)c1ccc2c(c1)nc(Nc1cccc(Cl)c1)c1cnccc12`, the IC50 in test [1] was greater than 0.5 µM.
On to `O=C(O)c1ccc2c(c1)nc(NCCc1ccccc1)c1ccncc12`, for which the IC50 is 13.2 µM in test [2]; 21 µM in test [3]; 47 µM in [4]; 8.6 µM in test [11]; 23.6 µM in test [5]; 14.7 µM in test [12]. Moreover, the IC50 in [8] is 5.2 µM; in test [9] it was 16.5 µM.
`O=C(O)c1ccc2c3sccc3c(=O)n(CCCO)c2c1` registered an inhibition in test [10] of 21%.
